Like-named read-outs stand apart in the source and are kept apart here.
How the values were obtained:
[1] = system: subject with bipolar disorder; test: Salvia divinorum by combustion and inhalation in one subject with bipolar disorder (Example 1); type: in vivo, human; conditions: for mania on traditional antidepressants: same subject, very small, sub-therapeutic doses
Description: This method was repeated approximately 20 times with consistent results.

[2] = target: 5HTP2A receptors (Homo sapiens, UniProt P28223); conditions: cited from earlier work
[3] = system: 50 other receptors, transporters and ion channels including mu- and delta-opioid receptors; conditions: cited from earlier work
[4] = target: D2 receptor (Homo sapiens, UniProt P14416); conditions: cited from earlier work
[5] = cited from earlier work

Chain of 5HTP2A receptors (P28223 whole entry): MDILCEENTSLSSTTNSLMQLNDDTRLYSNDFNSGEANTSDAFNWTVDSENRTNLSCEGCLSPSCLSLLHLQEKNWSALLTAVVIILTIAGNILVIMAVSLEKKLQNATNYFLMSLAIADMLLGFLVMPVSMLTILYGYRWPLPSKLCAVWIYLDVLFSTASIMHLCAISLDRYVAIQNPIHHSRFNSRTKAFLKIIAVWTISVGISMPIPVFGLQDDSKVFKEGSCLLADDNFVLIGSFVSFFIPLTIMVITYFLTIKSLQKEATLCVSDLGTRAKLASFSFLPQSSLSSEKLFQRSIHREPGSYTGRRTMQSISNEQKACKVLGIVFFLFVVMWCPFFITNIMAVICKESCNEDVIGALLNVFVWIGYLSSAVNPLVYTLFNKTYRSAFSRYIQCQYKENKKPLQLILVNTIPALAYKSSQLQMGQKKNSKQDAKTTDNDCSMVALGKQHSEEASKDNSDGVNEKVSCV
Chain of D2 receptor (P14416 whole entry): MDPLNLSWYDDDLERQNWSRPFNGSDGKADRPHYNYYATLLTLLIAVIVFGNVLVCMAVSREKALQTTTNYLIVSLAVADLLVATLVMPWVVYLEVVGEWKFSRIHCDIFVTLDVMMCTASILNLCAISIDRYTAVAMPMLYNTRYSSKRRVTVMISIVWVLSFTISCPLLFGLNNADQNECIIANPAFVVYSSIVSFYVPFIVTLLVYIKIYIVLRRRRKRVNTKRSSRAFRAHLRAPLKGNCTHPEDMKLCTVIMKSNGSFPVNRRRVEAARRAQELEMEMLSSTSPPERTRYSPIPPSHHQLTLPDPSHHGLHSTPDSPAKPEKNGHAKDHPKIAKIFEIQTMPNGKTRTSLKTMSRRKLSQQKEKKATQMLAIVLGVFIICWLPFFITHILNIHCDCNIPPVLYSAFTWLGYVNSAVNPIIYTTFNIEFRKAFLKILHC

## CN(C)CCCC1(c2ccc(F)cc2)OCc2cc(C#N)ccc21 (centres unmarked) [celexa]
[1]
  mania on traditional antidepressants: experienced mania

## O=C1CN=C(c2ccccc2Cl)c2cc([N+](=O)[O-])ccc2N1 [clonazepam]
[1]; clonazepam oral and/or sublingual, about 1.5 mg b.i.d., along with cannabis and/or intranasal ketamine and inhaled Salvia divinorum
  effect on the anxiolytic and antidepressant effects of Salvia divinorum alone: appeared to potentiate
[1]; clonazepam oral and/or sublingual, along with cannabis and/or intranasal ketamine and inhaled Salvia divinorum
  effect on anxiety, tremor or other side effects of Salvia divinorum administration: helped to further alleviate any anxiety, tremor or any other side effect

## CNC1(c2ccccc2Cl)CCCCC1=O (centres unmarked) [ketamine]
[1]; co-administered with inhaled Salvia divinorum, cannabis by combustion and inhalation and/or ketamine hydrochloride about 30 to about 75 mg intranasal
  effect on the anxiolytic and antidepressant effects of Salvia divinorum alone: appeared to potentiate

## COC(=O)[C@@H]1C[C@H](OC(C)=O)C(=O)[C@H]2[C@@]1(C)CC[C@H]1C(=O)O[C@H](c3ccoc3)C[C@]21C [salvinorin A]
[2]
  effect on 5HTP2A receptors: no significant effect
[2]; listed as Salvinorin A
  effect on 5HTP2A receptors: no substantial effect
[3]
  effect on a battery of 50 other receptors, transporters and ion channels: no significant effect
[4]
  D2 receptor activity: partial agonist
[5]; encapsulated, oral
  activity when administered orally: inactive
[5]; sublingual
  absorption on sublingual administration: inconsistent results or no absorption at all

## CN[C@H]1CC[C@@H](c2ccc(Cl)c(Cl)c2)c2ccccc21 [sertraline]
[1]
  mania on traditional antidepressants: experienced mania

From US10881637B2 (priority 2015, dated 2021)
